Test system: 855422-203-R-J1-PDC complex spheroid viability
Assay: Anticancer human tumor 855422-203-R-J1-PDC patient-derived bladder carcinoma cell line growth inhibition
Conditions: for IC50: curve of first compound; for viability, T/C: stronger effect = lower value
Outline: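 Multicellular complex spheroids of tumor cells with human endothelial cells (HUVEC) and mesenchymal stem cells; the LSD1 inhibitor iadademstat was combined with standard-of-care or investigational agents. Top concentration at or near clinical Cmax, half-log dilutions; final DMSO ≤0.25%.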
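Further: drug exposure lasted 7 days starting on day 3 after seeding.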
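Wherever viability, T/C is given: luminescence viability as percent of DMSO vehicle wells = 100%.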

For `CC1(C)CCC(CN2CCN(c3ccc(C(=O)NS(=O)(=O)c4ccc(NCC5CCOCC5)c([N+](=O)[O-])c4)c(Oc4cnc5[nH]ccc5c4)c3)CC2)=C(c2ccc(Cl)cc2)C1` + NC1CCC(NC2CC2c2ccccc2)CC1, which IC50 (second compound 0.1 µM) is on record?
The IC50 was 6.21 µM.

What about the IC50 (second compound 0.316 µM) of the same compound?
The IC50 was 6.16 µM.

And the IC50 (second compound 1 µM)?
The IC50 was 6.04 µM.

What about the IC50 (second compound 3.16 µM) of the same compound?
Its IC50 is 5.85 µM.

What about the IC50 (second compound 10 µM) of the same compound?
Its IC50 is 5.53 µM.

What about the viability, T/C (second compound 0.1 µM, first compound 0.0316 µM) of the same compound?
The viability, T/C was 103%.

And the viability, T/C (second compound 0.1 µM, first compound 0.1 µM)?
The viability, T/C was 94.7%.

And the viability, T/C (second compound 0.1 µM, first compound 0.316 µM)?
Its viability, T/C is 95.6%.

What about the viability, T/C (second compound 0.1 µM, first compound 1 µM) of the same compound?
Its viability, T/C is 101%.

What about the viability, T/C (second compound 0.1 µM, first compound 3.16 µM) of the same compound?
The viability, T/C was 93.4%.

What about the viability, T/C (second compound 0.1 µM, first compound 10 µM) of the same compound?
The viability, T/C was 19.2%.

And the viability, T/C (second compound 0.316 µM, first compound 0.0316 µM)?
The viability, T/C was 96.7%.

What about the viability, T/C (second compound 0.316 µM, first compound 0.1 µM) of the same compound?
The viability, T/C was 95.1%.

And the viability, T/C (second compound 0.316 µM, first compound 0.316 µM)?
The viability, T/C was 88.5%.

What about the viability, T/C (second compound 0.316 µM, first compound 1 µM) of the same compound?
Its viability, T/C is 100%.

And the viability, T/C (second compound 0.316 µM, first compound 3.16 µM)?
Its viability, T/C is 93.9%.

And the viability, T/C (second compound 0.316 µM, first compound 10 µM)?
The viability, T/C was 18%.

What about the viability, T/C (second compound 1 µM, first compound 0.0316 µM) of the same compound?
The viability, T/C was 94.4%.

What about the viability, T/C (second compound 1 µM, first compound 0.1 µM) of the same compound?
Its viability, T/C is 99.1%.

And the viability, T/C (second compound 1 µM, first compound 0.316 µM)?
The viability, T/C was 78.7%.

And the viability, T/C (second compound 1 µM, first compound 1 µM)?
Its viability, T/C is 93.3%.

What about the viability, T/C (second compound 1 µM, first compound 3.16 µM) of the same compound?
The viability, T/C was 102%.

What about the viability, T/C (second compound 1 µM, first compound 10 µM) of the same compound?
Its viability, T/C is 16.2%.

What about the viability, T/C (second compound 3.16 µM, first compound 0.0316 µM) of the same compound?
The viability, T/C was 85.4%.

What about the viability, T/C (second compound 3.16 µM, first compound 0.1 µM) of the same compound?
Its viability, T/C is 84.3%.

What about the viability, T/C (second compound 3.16 µM, first compound 0.316 µM) of the same compound?
Its viability, T/C is 109%.

What about the viability, T/C (second compound 3.16 µM, first compound 1 µM) of the same compound?
The viability, T/C was 101%.

What about the viability, T/C (second compound 3.16 µM, first compound 3.16 µM) of the same compound?
Its viability, T/C is 86.2%.

And the viability, T/C (second compound 3.16 µM, first compound 10 µM)?
The viability, T/C was 18.3%.

And the viability, T/C (second compound 10 µM, first compound 0.0316 µM)?
Its viability, T/C is 82.3%.

And the viability, T/C (second compound 10 µM, first compound 0.1 µM)?
The viability, T/C was 78.4%.

And the viability, T/C (second compound 10 µM, first compound 0.316 µM)?
Its viability, T/C is 92.4%.

What about the viability, T/C (second compound 10 µM, first compound 1 µM) of the same compound?
The viability, T/C was 72.2%.

What about the viability, T/C (second compound 10 µM, first compound 3.16 µM) of the same compound?
Its viability, T/C is 83.8%.

And the viability, T/C (second compound 10 µM, first compound 10 µM)?
The viability, T/C was 16.2%.

With `CCN(c1cc(-c2ccc(CN3CCOCC3)cc2)cc(C(=O)NCc2c(C)cc(C)[nH]c2=O)c1C)C1CCOCC1` + NC1CCC(NC2CC2c2ccccc2)CC1 as the compound, how does the IC50 (second compound 0.1 µM) read?
The IC50 was > 3 µM.

And the IC50 (second compound 0.316 µM)?
Its IC50 is > 3 µM.

And the IC50 (second compound 1 µM)?
Its IC50 is > 3 µM.

What about the IC50 (second compound 3.16 µM) of the same compound?
The IC50 was > 3 µM.

What about the IC50 (second compound 10 µM) of the same compound?
The IC50 was > 3 µM.

What about the viability, T/C (second compound 0.1 µM, first compound 0.00949 µM) of the same compound?
Its viability, T/C is 86.3%.

What about the viability, T/C (second compound 0.1 µM, first compound 0.03 µM) of the same compound?
The viability, T/C was 103%.

What about the viability, T/C (second compound 0.1 µM, first compound 0.0949 µM) of the same compound?
Its viability, T/C is 87%.

And the viability, T/C (second compound 0.1 µM, first compound 0.3 µM)?
Its viability, T/C is 86.7%.

What about the viability, T/C (second compound 0.1 µM, first compound 0.949 µM) of the same compound?
Its viability, T/C is 91.4%.

What about the viability, T/C (second compound 0.1 µM, first compound 3 µM) of the same compound?
Its viability, T/C is 82.9%.

And the viability, T/C (second compound 0.316 µM, first compound 0.00949 µM)?
The viability, T/C was 85.3%.

And the viability, T/C (second compound 0.316 µM, first compound 0.03 µM)?
Its viability, T/C is 95.9%.

And the viability, T/C (second compound 0.316 µM, first compound 0.0949 µM)?
Its viability, T/C is 96.2%.

What about the viability, T/C (second compound 0.316 µM, first compound 0.3 µM) of the same compound?
The viability, T/C was 91.4%.

What about the viability, T/C (second compound 0.316 µM, first compound 0.949 µM) of the same compound?
The viability, T/C was 89.9%.

And the viability, T/C (second compound 0.316 µM, first compound 3 µM)?
The viability, T/C was 91.1%.

And the viability, T/C (second compound 1 µM, first compound 0.00949 µM)?
Its viability, T/C is 92.3%.

What about the viability, T/C (second compound 1 µM, first compound 0.03 µM) of the same compound?
The viability, T/C was 92.7%.

What about the viability, T/C (second compound 1 µM, first compound 0.0949 µM) of the same compound?
The viability, T/C was 93.5%.

And the viability, T/C (second compound 1 µM, first compound 0.3 µM)?
The viability, T/C was 88.3%.

What about the viability, T/C (second compound 1 µM, first compound 0.949 µM) of the same compound?
Its viability, T/C is 86.3%.

What about the viability, T/C (second compound 1 µM, first compound 3 µM) of the same compound?
The viability, T/C was 91.8%.

And the viability, T/C (second compound 3.16 µM, first compound 0.00949 µM)?
The viability, T/C was 91.3%.

And the viability, T/C (second compound 3.16 µM, first compound 0.03 µM)?
The viability, T/C was 90.5%.

And the viability, T/C (second compound 3.16 µM, first compound 0.0949 µM)?
Its viability, T/C is 83.3%.

What about the viability, T/C (second compound 3.16 µM, first compound 0.3 µM) of the same compound?
The viability, T/C was 87.6%.

What about the viability, T/C (second compound 3.16 µM, first compound 0.949 µM) of the same compound?
Its viability, T/C is 82%.

And the viability, T/C (second compound 3.16 µM, first compound 3 µM)?
The viability, T/C was 95.9%.

What about the viability, T/C (second compound 10 µM, first compound 0.00949 µM) of the same compound?
Its viability, T/C is 84.1%.

What about the viability, T/C (second compound 10 µM, first compound 0.03 µM) of the same compound?
Its viability, T/C is 82.6%.

And the viability, T/C (second compound 10 µM, first compound 0.0949 µM)?
The viability, T/C was 79.4%.

What about the viability, T/C (second compound 10 µM, first compound 0.3 µM) of the same compound?
Its viability, T/C is 79.5%.

What about the viability, T/C (second compound 10 µM, first compound 0.949 µM) of the same compound?
The viability, T/C was 82.7%.

And the viability, T/C (second compound 10 µM, first compound 3 µM)?
Its viability, T/C is 83.7%.

From PubChem BioAssay AID1918943 (Molecular Pharmacology Branch, DTP, NCI, 2023)
